US20140248254A1, “THE USE OF ACHE AS NUCLEASE” (priority 2011, published 2014)

Biological target: T1, DNase activity of AChE (Homo AChE protein) (Homo sapiens, UniProt P22303)
T1 construct: AChE 1-547AA corresponding to human; AChE1-548AA corresponding to mouse; made in house
Assay: Effect of metal cations and chelators on DNase activity of Homo AChE
Format: biochemical
Conditions: 2.5 mM CaCl2, 5 mM MgCl2, 0.5 mM EGTA, 0.5 mM EDTA; 6 h
Description: A. In the presence of 2.5 mM CaCl2, 5 mM MgCl2, 0.5 mM EGTA, 0.5 mM EDTA or the combination thereof, plasmid DNA (pEGFP-C1 plasmid) was incubated with Homo AChE protein for 6 h.
Purified plasmid DNA was used as substrate for detection. In the experiment of cleaving of plasmid DNA, 0.15 μg of plasmid DNA with a transfection-grade purity (pEGFP-C1 plasmid, Clotech) was added to 10 μl buffer system containing (5.0 mM Tris-HCl, PH 7.5; 2.5 mM CaCl2; 5.0 mM MgCl2). 1 μg (or an amount indicated in Examples) of purified AChE proteins of human or mouse origin (AChE 1-547AA corresponding to human; AChE1-548AA corresponding to mouse) was further added, and incubated in 37° C. Sampling at 6 h (or timepoints indicated in Examples).

T1 sequence (P22303 32-578): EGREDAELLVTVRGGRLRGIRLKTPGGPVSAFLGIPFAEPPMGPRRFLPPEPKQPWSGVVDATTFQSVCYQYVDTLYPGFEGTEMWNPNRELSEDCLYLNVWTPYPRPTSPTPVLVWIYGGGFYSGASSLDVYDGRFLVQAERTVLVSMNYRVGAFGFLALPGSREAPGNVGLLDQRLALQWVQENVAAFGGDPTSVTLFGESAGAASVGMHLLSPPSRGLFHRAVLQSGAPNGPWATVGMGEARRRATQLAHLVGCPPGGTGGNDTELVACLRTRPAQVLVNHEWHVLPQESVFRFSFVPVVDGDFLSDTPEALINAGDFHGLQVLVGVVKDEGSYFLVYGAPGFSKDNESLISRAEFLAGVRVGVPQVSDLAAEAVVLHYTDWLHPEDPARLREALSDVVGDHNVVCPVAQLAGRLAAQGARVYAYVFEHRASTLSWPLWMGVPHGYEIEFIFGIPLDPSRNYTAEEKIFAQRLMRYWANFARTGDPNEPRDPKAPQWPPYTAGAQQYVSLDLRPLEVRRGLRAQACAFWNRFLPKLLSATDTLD

Row | Structure (SMILES) | effect on activity of AChE cleaving DNA
1 | O=C(O)CN(CCN(CC(=O)O)CC(=O)O)CC(=O)O [EDTA] | significantly inhibited
2 | O=C(O)CN(CCOCCOCCN(CC(=O)O)CC(=O)O)CC(=O)O [EGTA] | not obvious
